In one data set the test system is C3H/HeN mice. The note with it: 10 mg/kg orally once a day; 24 hours after DNFB application at fifth week; female C3H/HeN mice.

The results in this text go back to patent publication US8049006B2, “7-membered ring compound and method of production and pharmaceutical application thereof” (Daiichi Sankyo Company, Limited, priority 2006, dated 2011).

As a reminder, the melting point is the temperature of the solid-liquid transition.

Consider `COc1ccc(F)cc1/C=C1\CNC(=O)CN(S(=O)(=O)c2ccc(Cl)s2)C1=O`, for which the melting point lay within 150 to 153 °C.
Still for that read-out and setting: in the case of `CC[C@@H](NC(=O)N1CC(=O)NC[C@@H](Cc2cc(Cl)ccc2OC)C1=O)c1cccc(C(=O)[O-])c1.[Na+]` it was 161 to 163 °C; in that of `COC(=O)C[C@@H]1C(=O)NC[C@H](Cc2cc(F)ccc2OC)C(=O)N1S(=O)(=O)c1ccc(Cl)cc1`, 73 to 76 °C.
Same read-out and setting: in the case of `CC[C@@H](NC(=O)N1CC(=O)NCC(Cc2cc(Cl)ccc2OC)C1=O)C(=O)Nc1nnn[nH]1` (stereo partly drawn) it was 141 to 142 °C; in that of `CC[C@@H](NC(=O)N1CC(=O)NCC(Cc2cc(Cl)ccc2OC)C1=O)C(=O)Nc1ccc(C)c(C(=O)O)c1` (stereo partly drawn), 132 to 134 °C; in that of `COC(=O)COc1ccc(Cl)cc1CC1CNC(=O)CN(S(=O)(=O)c2ccc(Cl)cc2)C1=O` (stereo not drawn), 138 to 140 °C.
`O=C(CN1CC(Cc2ccccc2)C(=O)N(S(=O)(=O)c2ccc(Cl)cc2)CC1=O)NCc1ccccc1` (stereo not drawn) showed a melting point of 187 to 190 °C.
Consider `COc1ccc(Cl)cc1CC1CNC(=O)CN(C(=O)Nc2cccc(NC(C)=O)c2)C1=O` (stereo not drawn), for which the melting point was 130 to 131 °C.
Still for that read-out and setting: with `Cc1cccc(CC2CNC(=O)CN(S(=O)(=O)c3ccc(Cl)cc3)C2=O)c1` (stereo not drawn) the figure was 64 to 66 °C; with `N#Cc1ccc(S(=O)(=O)N2CC(=O)NC/C(=C\c3ccccc3)C2=O)cc1`, 239 °C (dec.).
Compound `COc1ccc(Cl)cc1CC1CNC(=O)CN(S(=O)(=O)c2ccc(Cl)cc2)C1=O` (stereo not drawn) [Compound 29, 6-(5-chloro-2-methoxybenzyl)-4-[(4-chlorophenyl)sulfonyl]-1,4-diazepan-2,5-dione] gave a melting point of 110 to 112 °C. Further, in the data set with C3H/HeN mice, the “inhibition rate of the skin reaction” value was 25.1%.
Turning to `COc1ccc(Cl)cc1CC1CNC(=O)CN(S(=O)(=O)c2ccc(Cl)c(N)c2)C1=O.Cl` (stereo not drawn) [Compound 90, 4-[(3-amino-4-chlorophenyl)sulfonyl]-6-(5-chloro-2-methoxybenzyl)-1,4-diazepan-2,5-dione Hydrochloride], in the data set with C3H/HeN mice, the “inhibition rate of the skin reaction” value is listed as 31.0%.
`CC[C@@H](NC(=O)N1CC(=O)NC[C@@H](Cc2cc(Cl)ccc2OC)C1=O)c1cccc(C(=O)O)c1` [Compound 91, 3-[(1R)-1-({[(6R)-6-(5-chloro-2-methoxybenzyl)-3,7-dioxo-1,4-diazepan-1-yl]carbonyl}amino)propyl]benzoic Acid] gave a melting point of 121 to 123 °C. The “inhibition rate of the skin reaction” value in the data set on C3H/HeN mice came to 26.1%.
